Measurements as given in US9062066B2, “Anti-inflammatory compound having inhibitory activity against multiple tyrosine kinases and pharmaceutical composition containing same” (KOREA INSTITUTE OF SCIENCE AND TECHNOLOGY, priority 2010, dated 2015).

Experiments:
[1] = tested on: house mite allergic substance-induced asthma in mice; assay: house mite allergen asthma animal model; assay type: in vivo; conditions: for mucin in lung tissue (periodic Schiff staining): 20 ul intratracheal, LCB 03-0110 0.1%, Budesonide 0.03%
Fgr tyrosine kinase = Fgr tyrosine kinase (Homo sapiens (Human), UniProt P09769); assay: in vitro Fgr tyrosine kinase inhibition; assay type: biochemical; conditions: read-out: % inhibition against Fgr
Fgr tyrosine kinase, sequence (P09769 whole entry): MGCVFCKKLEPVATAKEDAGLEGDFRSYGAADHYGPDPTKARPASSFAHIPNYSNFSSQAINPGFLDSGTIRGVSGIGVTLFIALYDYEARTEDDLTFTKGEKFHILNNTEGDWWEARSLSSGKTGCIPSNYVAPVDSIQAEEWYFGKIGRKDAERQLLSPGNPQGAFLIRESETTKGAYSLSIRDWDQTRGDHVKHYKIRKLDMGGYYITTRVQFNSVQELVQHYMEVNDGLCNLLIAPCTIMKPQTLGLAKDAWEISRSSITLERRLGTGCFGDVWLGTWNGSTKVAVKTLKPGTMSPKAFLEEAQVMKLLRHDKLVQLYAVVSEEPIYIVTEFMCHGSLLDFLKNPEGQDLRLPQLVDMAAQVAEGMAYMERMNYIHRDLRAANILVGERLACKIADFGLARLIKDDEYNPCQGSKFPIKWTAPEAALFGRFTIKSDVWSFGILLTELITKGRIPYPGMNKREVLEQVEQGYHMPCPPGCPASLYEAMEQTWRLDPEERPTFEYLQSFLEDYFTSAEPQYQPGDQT

Hck tyrosine kinase = Hck tyrosine kinase (Homo sapiens (Human), UniProt P08631); assay: in vitro Hck tyrosine kinase inhibition; assay type: biochemical; conditions: read-out: % inhibition against Hck
Hck tyrosine kinase, sequence (P08631 whole entry): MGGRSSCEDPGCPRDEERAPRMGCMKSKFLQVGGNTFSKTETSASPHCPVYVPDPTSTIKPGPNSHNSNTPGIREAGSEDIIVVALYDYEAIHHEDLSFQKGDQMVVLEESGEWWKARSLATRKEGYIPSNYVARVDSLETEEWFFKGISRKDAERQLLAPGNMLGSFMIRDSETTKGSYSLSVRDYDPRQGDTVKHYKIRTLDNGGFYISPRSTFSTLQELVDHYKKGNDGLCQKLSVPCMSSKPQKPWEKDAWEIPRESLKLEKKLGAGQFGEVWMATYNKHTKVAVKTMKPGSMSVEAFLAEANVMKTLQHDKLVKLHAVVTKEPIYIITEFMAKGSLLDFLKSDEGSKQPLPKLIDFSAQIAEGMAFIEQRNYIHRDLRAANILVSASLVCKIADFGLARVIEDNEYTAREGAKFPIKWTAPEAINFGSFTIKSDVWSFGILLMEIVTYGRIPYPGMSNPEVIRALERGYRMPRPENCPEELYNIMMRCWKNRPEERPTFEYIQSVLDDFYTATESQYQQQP

[2] = tested on: IL-12 synthesis in J774A.1 macrophage; assay: cells; conditions: Mus musculus, J774.A1, read-out: inhibition of LPS-induced IL-12 synthesis
[3] = tested on: oxazolone-induced skin inflammation of Balb/C mouse ears; assay: mouse skin inflammatory model induced by oxazolone (ear thickness); assay type: in vivo; conditions: mouse, in vivo
Summary of the method: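 Oxazolone was used to induce skin inflammation in the ears of 8-week-old Balb/C mice. Ear thickness was measured by caliper before induction, again at 36 h to capture inflammatory swelling, and averaged per group (n=4).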

[4] = tested on: NO synthesis in J744A.1 macrophage; assay: inhibition of nitric oxide (NO) synthesis in LPS-activated macrophages (Griess reagent); assay type: cell-based; conditions: 24 h, read-out: Inhibition (%) of NO synthesis
Lyn tyrosine kinase = Lyn tyrosine kinase (Homo sapiens (Human), UniProt P07948); assay: in vitro Lyn tyrosine kinase inhibition; assay type: biochemical; conditions: read-out: % inhibition against Lyn
Lyn tyrosine kinase, sequence (P07948 whole entry): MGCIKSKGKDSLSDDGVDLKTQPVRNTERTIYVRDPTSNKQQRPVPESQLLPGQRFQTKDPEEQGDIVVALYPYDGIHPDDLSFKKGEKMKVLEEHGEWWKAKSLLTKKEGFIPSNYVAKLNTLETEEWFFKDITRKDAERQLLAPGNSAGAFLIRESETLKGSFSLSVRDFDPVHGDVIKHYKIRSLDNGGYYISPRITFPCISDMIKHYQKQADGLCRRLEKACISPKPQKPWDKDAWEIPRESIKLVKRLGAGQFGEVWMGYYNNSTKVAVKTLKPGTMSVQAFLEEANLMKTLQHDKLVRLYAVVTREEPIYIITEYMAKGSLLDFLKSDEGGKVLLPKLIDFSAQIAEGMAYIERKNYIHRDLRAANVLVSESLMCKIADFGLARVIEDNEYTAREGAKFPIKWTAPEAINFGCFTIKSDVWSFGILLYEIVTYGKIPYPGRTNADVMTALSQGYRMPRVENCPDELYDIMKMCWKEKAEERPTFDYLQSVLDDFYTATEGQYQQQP

RBL-2H3 mast cells = assay: cells; conditions: Rattus norvegicus, RBL-2H3, read-out: inhibition of hexosaminidase release (degranulation)
[5] = tested on: TNCB-induced atopic dermatitis in Nc/Nga mice; conditions: 0.1% transdermal every day for two weeks
[6] = tested on: TNF-α synthesis in J744A.1 macrophages; assay: inhibition of TNF-α synthesis in LPS-activated macrophages (ELISA); assay type: cell-based; conditions: Macrophage, 6 h, read-out: Inhibition (%) of TNF-α synthesis
[7] = tested on: full excisional ear wounds in New Zealand white rabbits; conditions: 0.1% topical
[8] = tested on: α-smooth muscle actin protein expression in skin fibroblast cells; assay: inhibition of α-smooth muscle actin expression in fibroblast activated by type I collagen and TGF-β1 (western blotting); assay type: cell-based, Balb/C mouse; conditions: Mus musculus, 48 h, read-out: Inhibition (%) of α-smooth muscle actin increase
Summary of the method: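 α-Smooth muscle actin protein was detected by western blotting with chemiluminescence on X-ray film. Levels were quantified by densitometry of the band.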

DDR2 tyrosine kinase = DDR2 tyrosine kinase (Homo sapiens (Human), UniProt Q16832); assay: in vitro DDR2 tyrosine kinase inhibition (GST-fused kinase domain); assay type: biochemical; conditions: read-out: % inhibition against DDR2
DDR2 tyrosine kinase, sequence (Q16832 563-849): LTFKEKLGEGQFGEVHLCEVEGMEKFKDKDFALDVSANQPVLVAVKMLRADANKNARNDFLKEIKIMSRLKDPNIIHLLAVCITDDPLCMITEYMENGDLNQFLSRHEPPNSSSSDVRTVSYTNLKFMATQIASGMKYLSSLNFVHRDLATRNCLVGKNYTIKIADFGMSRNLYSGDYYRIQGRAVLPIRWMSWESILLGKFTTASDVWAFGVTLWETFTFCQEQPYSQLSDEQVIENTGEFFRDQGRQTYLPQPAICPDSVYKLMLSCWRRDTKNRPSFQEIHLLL

DDR1 tyrosine kinase = DDR1 tyrosine kinase (Homo sapiens (Human), UniProt Q08345); assay: in vitro DDR1 tyrosine kinase inhibition (GST-fused kinase domain); assay type: biochemical; conditions: read-out: % inhibition against DDR1
DDR1 tyrosine kinase, sequence (Q08345 610-905): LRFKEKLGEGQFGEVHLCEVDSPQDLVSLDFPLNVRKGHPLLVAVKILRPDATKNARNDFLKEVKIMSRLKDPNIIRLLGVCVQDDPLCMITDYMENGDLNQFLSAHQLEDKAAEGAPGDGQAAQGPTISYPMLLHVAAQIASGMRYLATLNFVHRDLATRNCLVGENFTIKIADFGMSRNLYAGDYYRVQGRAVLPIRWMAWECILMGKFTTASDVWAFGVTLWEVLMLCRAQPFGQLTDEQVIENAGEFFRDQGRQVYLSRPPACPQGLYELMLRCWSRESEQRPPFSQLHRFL

Compound | mucin in lung tissue (periodic Schiff staining) [1] | inhibition at 1 µM (Fgr tyrosine kinase) [%] | eosinophil penetration into lung tissue ([1]; 20 ul of 0.1% intratracheal) | eotaxin in BALF ([1]; 20 ul of 0.1% intratracheal) | inhibition at 1 µM (Hck tyrosine kinase) [%] | inhibition at 1 µM [2] [%] | Inhibition (%) of increase of ear thickness [3] [%] | inhibition at 10 µM [4] [%] | inhibition at 1 µM (Lyn tyrosine kinase) [%] | inhibition at 0.3 µM (RBL-2H3 mast cells) [%] | reduction of epidermal thickness compared to the TNCB group [5] | reduction of mast cell count compared to the TNCB group [5] | reduction of serum IgE level compared to the TNCB group [5] | reduction of transepidermal water loss (TEWL) compared to the TNCB group [5] | inhibition at 10 µM [6] [%] | wound closing rate ([7]; 150 μL per wound, every three days, versus carrier solution) | macrophages (F4/80) and activated myoblast cells (alpha smooth muscle actin) in wound tissue ([7]; three days after wounding) | inhibition at 0.5 µM [8] [%] | inhibition at 1 µM (DDR2 tyrosine kinase) [%] | inhibition at 1 µM (DDR1 tyrosine kinase) [%]
CCCC1O[C@@H]2C[C@H]3[C@@H]4CCC5=CC(=O)C=C[C@]5(C)[C@H]4[C@@H](O)C[C@]3(C)[C@]2(C(=O)CO)O1 (stereo partly drawn) [Budesonide, reference compound] | decreased the extent of the staining |  |  |  |  |  |  |  |  |  |  |  |  |  |  |  |  |  |  | 
Oc1cccc(Nc2ccnc3cc(-c4cccc(CN5CCOCC5)c4)sc23)c1 [LCB 03-0110, 3-(2-(3-(morpholinomethyl)phenyl)thieno[3,2-b]pyridin-7-ylamino)phenol] | suppressed mucin synthesis similarly to the positive control | > 80 | suppressed eosinophil penetration into lung tissue | suppression of eotaxin | > 80 | ~100 | 72 | 97 | > 90 | ≥ 80 | more than 60% | approximately 25% | more than 20% | more than 30% | 64 | closed at a higher rate | suppressed the activation of macrophages and myoblast cells with a statistical significance | 82 | > 90 | > 90
